By IC50 is commonly meant the concentration that inhibits the measured activity by half. High values mean a need for much substance, low ones inhibition by little substance.

In patent US20230340011A1 (Asteroid Therapeutics, priority 2022, published 2023) one finds EC50 and IC50 data, which are given here for 20 molecules.

A value given as a limit tells only on which side of the number the result lay.

Experiment [1] has as its target LXRβ (Homo sapiens (Human), UniProt P55055). Nature of the experiment: In vitro assay LXRβ: PathHunter NHR CHO cells, LXRβ / Steroid Receptor Co-activator Peptide enzyme fragment complementation. Format: cell-based. Conditions: PathHunter NHR CHO cells, full-length human LXRβ and SRCP, chemiluminescent signal; read-out: LXRβ PPI. Here is the method: PathHunter NHR CHO cells stably transfected with tagged full-length human LXRβ and a nuclear fusion protein containing Steroid Receptor Co-activator Peptide (SRCP). The full-length human LXRβ was tagged with the ProLink™ component of the DiscoverX Enzyme Fragment Complementation (EFC) system and the SRCP domain is fused to the enzyme acceptor component (EA) expressed in the nucleus. Cells were seeded in a total volume of 20 μL into white walled, 384-well microplates and incubated at 37° C. overnight prior to testing. Assay media contained charcoal-dextran filtered serum to reduce the level of hormones present. Final assay vehicle concentration was 1%. […] Microplates were read following signal generation with a PerkinElmer Envision instrument for chemiluminescent signal detection.

Experiment [2] concerns the target SREBP-2 (Homo sapiens (Human), UniProt Q12772). Nature of the experiment: In vitro assay SREBP-2: PathHunter U2OS SREBP-2 Nuclear Translocation Cell Line, U18666A-stimulated. The class given is cell-based. Conditions: PathHunter U2OS SREBP-2 nuclear translocation cells, U18666A 10 μM, overnight (16 hours).

LXRβ, sequence (P55055 whole entry, the tested form may be a part): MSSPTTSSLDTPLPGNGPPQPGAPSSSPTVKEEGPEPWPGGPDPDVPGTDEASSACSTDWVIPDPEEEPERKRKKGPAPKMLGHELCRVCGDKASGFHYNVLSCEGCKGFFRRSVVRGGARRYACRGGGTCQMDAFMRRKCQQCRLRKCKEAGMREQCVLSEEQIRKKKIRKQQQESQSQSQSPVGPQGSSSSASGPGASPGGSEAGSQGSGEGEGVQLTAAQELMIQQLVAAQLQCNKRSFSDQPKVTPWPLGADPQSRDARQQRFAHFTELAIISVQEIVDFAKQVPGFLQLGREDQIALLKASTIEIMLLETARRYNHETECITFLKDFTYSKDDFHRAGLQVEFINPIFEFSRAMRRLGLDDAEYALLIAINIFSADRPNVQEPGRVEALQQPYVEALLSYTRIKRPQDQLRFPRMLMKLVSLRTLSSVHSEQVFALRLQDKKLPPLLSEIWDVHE

With `C[C@@H](NC(=O)C(=O)N(C)C)[C@H]1CC[C@H]2[C@@H]3CC=C4C[C@@H](O)CC[C@]4(C)[C@H]3CC[C@]12C` (single isomer, unassigned) [Example 119], in experiment [1], the EC50 is > 10 µM.
Same read-out and setting: under `C[C@H](CCC(=O)N1CCC(C)(O)CC1)[C@H]1CC[C@H]2[C@@H]3CC=C4C[C@@H](O)CC[C@]4(C)[C@H]3CC[C@]12C` [Example 6, (R)-4-((3S,8S,9S,10R,13R,14S,17R)-3-hydroxy-10,13-dimethyl-2,3,4,7,8,9,10,11,12,13,14,15,16,17-tetradecahydro-1H-cyclopenta[a]phenanthren-17-yl)-1-(4-hydroxy-4-methylpiperidin-1-yl)pentan-1-one] stands 0.25 to 1 µM; under `CCN(OC)C(=O)CC[C@@H](C)[C@H]1CC[C@H]2[C@@H]3CC=C4C[C@@H](O)CC[C@]4(C)[C@H]3CC[C@]12C` [Example 11, (R)—N-ethyl-4-((3S,8S,9S,10R,13R,14S,17R)-3-hydroxy-10,13-dimethyl-2,3,4,7,8,9,10,11,12,13,14,15,16,17-tetradecahydro-1H-cyclopenta[a]phenanthren-17-yl)-N-methoxypentanamide], 0.25 to 1 µM; under `CCCON(C)C(=O)CC[C@@H](C)[C@H]1CC[C@H]2[C@@H]3CC=C4C[C@@H](O)CC[C@]4(C)[C@H]3CC[C@]12C` [Example 12, (R)-4-((3S,8S,9S,10R,13R,14S,17R)-3-hydroxy-10,13-dimethyl-2,3,4,7,8,9,10,11,12,13,14,15,16,17-tetradecahydro-1H-cyclopenta[a]phenanthren-17-yl)-N-methyl-N-propoxypentanamide], 0.25 to 1 µM.
Turning to `CON(C(=O)CC[C@@H](C)[C@H]1CC[C@H]2[C@@H]3CC=C4C[C@@H](O)CC[C@]4(C)[C@H]3CC[C@]12C)C(C)C` [Example 15, (R)-4-((3S,8S,9S,10R,13R,14S,17R)-3-hydroxy-10,13-dimethyl-2,3,4,7,8,9,10,11,12,13,14,15,16,17-tetradecahydro-1H-cyclopenta[a]phenanthren-17-yl)-N-isopropyl-N-methoxypentanamide], the EC50 in experiment [1] lay in the range of 1 to 10 µM.
Turning to `CCCCN(OC)C(=O)CC[C@@H](C)[C@H]1CC[C@H]2[C@@H]3CC=C4C[C@@H](O)CC[C@]4(C)[C@H]3CC[C@]12C` [Example 17, (R)—N-butyl-4-((3S,8S,9S,10R,13R,14S,17R)-3-hydroxy-10,13-dimethyl-2,3,4,7,8,9,10,11,12,13,14,15,16,17-tetradecahydro-1H-cyclopenta[a]phenanthren-17-yl)-N-methoxypentanamide], the EC50 in experiment [1] lay in the range of 1 to 10 µM.
Take `COCCON(C)C(=O)CC[C@@H](C)[C@H]1CC[C@H]2[C@@H]3CC=C4C[C@@H](O)CC[C@]4(C)[C@H]3CC[C@]12C` [Example 27, (R)-4-((3S,8S,9S,10R,13R,14S,17R)-3-hydroxy-10,13-dimethyl-2,3,4,7,8,9,10,11,12,13,14,15,16,17-tetradecahydro-1H-cyclopenta[a]phenanthren-17-yl)-N-(2-methoxyethoxy)-N-methylpentanamide]: in experiment [1], the EC50 fell in the range of 1 to 10 µM.
Turning to `C[C@H](CCC(=O)N(C)OCCCO)[C@H]1CC[C@H]2[C@@H]3CC=C4C[C@@H](O)CC[C@]4(C)[C@H]3CC[C@]12C` [Example 30, (R)-4-((3S,8S,9S,10R,13R,14S,17R)-3-hydroxy-10,13-dimethyl-2,3,4,7,8,9,10,11,12,13,14,15,16,17-tetradecahydro-1H-cyclopenta[a]phenanthren-17-yl)-N-(3-hydroxypropoxy)-N-methylpentanamide], the EC50 in experiment [1] is 1 to 10 µM.
Regarding `COCCCON(C)C(=O)CC[C@@H](C)[C@H]1CC[C@H]2[C@@H]3CC=C4C[C@@H](O)CC[C@]4(C)[C@H]3CC[C@]12C` [Example 31, (R)-4-((3S,8S,9S,10R,13R,14S,17R)-3-hydroxy-10,13-dimethyl-2,3,4,7,8,9,10,11,12,13,14,15,16,17-tetradecahydro-1H-cyclopenta[a]phenanthren-17-yl)-N-(3-methoxypropoxy)-N-methylpentanamide], the EC50 in experiment [1] lay in the range of 1 to 10 µM.
`C[C@H](CCC(=O)N1O[C@H]2C[C@@H]1[C@H](O)[C@@H]2O)[C@H]1CC[C@H]2[C@@H]3CC=C4C[C@@H](O)CC[C@]4(C)[C@H]3CC[C@]12C` [Example 54, (R)-1-((1S,4R,5S,6S)-5,6-dihydroxy-2-oxa-3-azabicyclo [2.2.1]heptan-3-yl)-4-((3S,8S,9S,10R,13R,14S,17R)-3-hydroxy-10,13-dimethyl-2,3,4,7,8,9,10,11,12,13,14,15,16,17-tetradecahydro-1H-cyclopenta[a]phenanthren-17-yl) pentan-1-one]: the EC50 in experiment [1] was > 10 µM.
`C[C@H](CCC(=O)N1O[C@@H]2C[C@H]1[C@@H](O)[C@H]2O)[C@H]1CC[C@H]2[C@@H]3CC=C4C[C@@H](O)CC[C@]4(C)[C@H]3CC[C@]12C` [Example 55, (R)-1-((1R,4S,5R,6R)-5,6-dihydroxy-2-oxa-3-azabicyclo[2.2.1]heptan-3-yl)-4-((3S,8S,9S,10R,13R,14S,17R)-3-hydroxy-10,13-dimethyl-2,3,4,7,8,9,10,11,12,13,14,15,16,17-tetradecahydro-1H-cyclopenta[a]phenanthren-17-yl)pentan-1-one]: the EC50 in experiment [1] is > 10 µM.
Turning to `C[C@H](CCC(=O)N1OCC[C@@H]1C)[C@H]1CC[C@H]2[C@@H]3CC=C4C[C@@H](O)CC[C@]4(C)[C@H]3CC[C@]12C` [Example 57, (R)-4-((3S,8S,9S,10R,13R,14S,17R)-3-hydroxy-10,13-dimethyl-2,3,4,7,8,9,10,11,12,13,14,15,16,17-tetradecahydro-1H-cyclopenta[a]phenanthren-17-yl)-1-((S)-3-methylisoxazolidin-2-yl)pentan-1-one], in experiment [1], the EC50 fell in the range of 0.25 to 1 µM.
`C[C@H]1CON(C(=O)CC[C@@H](C)[C@H]2CC[C@H]3[C@@H]4CC=C5C[C@@H](O)CC[C@]5(C)[C@H]4CC[C@]23C)C1` [Example 58, (R)-4-((3S,8S,9S,10R,13R,14S,17R)-3-hydroxy-10,13-dimethyl-2,3,4,7,8,9,10,11,12,13,14,15,16,17-tetradecahydro-1H-cyclopenta[a]phenanthren-17-yl)-1-((R)-4-methylisoxazolidin-2-yl)pentan-1-one]: in experiment [1], the EC50 was 0.25 to 1 µM.
As to `C[C@@H]1CCN(C(=O)CC[C@@H](C)[C@H]2CC[C@H]3[C@@H]4CC=C5C[C@@H](O)CC[C@]5(C)[C@H]4CC[C@]23C)O1` [Example 59, (R)-4-((3S,8S,9S,10R,13R,14S,17R)-3-hydroxy-10,13-dimethyl-2,3,4,7,8,9,10,11,12,13,14,15,16,17-tetradecahydro-1H-cyclopenta[a]phenanthren-17-yl)-1-((R)-5-methylisoxazolidin-2-yl)pentan-1-one], in experiment [1], the EC50 is 0.25 to 1 µM.
As for `C[C@@H]1CCCN(C(=O)CC[C@@H](C)[C@H]2CC[C@H]3[C@@H]4CC=C5C[C@@H](O)CC[C@]5(C)[C@H]4CC[C@]23C)O1` [Example 60, (R)-4-((3S,8S,9S,10R,13R,14S,17R)-3-hydroxy-10,13-dimethyl-2,3,4,7,8,9,10,11,12,13,14,15,16,17-tetradecahydro-1H-cyclopenta[a]phenanthren-17-yl)-1-((R)-6-methyl-1,2-oxazinan-2-yl)pentan-1-one], the EC50 in experiment [1] is 0.25 to 1 µM.
Take `C[C@H](CCC(=O)N(C)OC1CCCC1)[C@H]1CC[C@H]2[C@@H]3CC=C4C[C@@H](O)CC[C@]4(C)[C@H]3CC[C@]12C` [Example 61, (R)-4-((3S,8S,9S,10R,13R,14S,17R)-3-hydroxy-10,13-dimethyl-2,3,4,7,8,9,10,11,12,13,14,15,16,17-tetradecahydro-1H-cyclopenta[a]phenanthren-17-yl)-N-(methyl)-N-cyclopentoxypentanamide]: in experiment [1], the EC50 lay in the range of 1 to 10 µM.
The same measure, in the same setting: as for `CON(CC(=O)OC(C)(C)C)C(=O)CC[C@@H](C)[C@H]1CC[C@H]2[C@@H]3CC=C4C[C@@H](O)CC[C@]4(C)[C@H]3CC[C@]12C` [Example 75, tert-butyl N—((R)-4-((3S,8S,9S,10R,13R,14S,17R)-3-hydroxy-10,13-dimethyl-2,3,4,7,8,9,10,11,12,13,14,15,16,17-tetradecahydro-1H-cyclopenta[a]phenanthren-17-yl)pentanoyl)-N-methoxyglycinate], the figure is 0.25 to 1 µM.
On to `C[C@H](CCC(=O)N(C)C)[C@H]1CC[C@H]2[C@@H]3CC=C4C[C@@H](O)C[C@H](O)[C@]4(C)[C@H]3CC[C@]12C` [Example 123, (R)-4-((1S,3R,8S,9S,10R,13R,14S,17R)-1,3-dihydroxy-10,13-dimethyl-2,3,4,7,8,9,10,11,12,13,14,15,16,17-tetradecahydro-1H-cyclopenta[a]phenanthren-17-yl)-N,N-dimethylpentanamide], for which the EC50 in experiment [1] was 1 to 10 µM.
In the case of `CCC1(O)CCN(C(=O)C[C@@H](C)[C@H]2CC[C@H]3[C@@H]4CC=C5C[C@@H](O)CC[C@]5(C)[C@H]4CC[C@]23C)CC1` [Example 592, (R)-1-(4-ethyl-4-hydroxypiperidin-1-yl)-3-((3S,8S,9S,10R,13R,14S,17R)-3-hydroxy-10,13-dimethyl-2,3,4,7,8,9,10,11,12,13,14,15,16,17-tetradecahydro-1H-cyclopenta[a]phenanthren-17-yl)butan-1-one], the IC50 in experiment [2] was < 0.25 µM.
With “(4R)-4-[(1R,3aS,3bS,7S,9aR,9bS,11aR)-7-hydroxy-9a,11a-dimethyl-1H,2H,3H,3aH,3bH,4H,6H,7H,8H,9H,9aH,9bH,10H,11H,11aH-cyclopenta[a]phenanthren-1-yl]-1-[(3R)-3-(pyrimidin-4-yloxy)piperidin-1-yl]pentan-1-one [Example 462]”, the IC50 in experiment [2] was < 0.25 µM.
